This passage reports IC50 results from patent US9353096B2, “Substituted phenylcarbamate compounds” (Hoffmann-La Roche Inc., priority 2012, dated 2016).

Where a name gives a salt, the structure may show the parent alone.

hTRPA1, sequence (O75762 whole entry): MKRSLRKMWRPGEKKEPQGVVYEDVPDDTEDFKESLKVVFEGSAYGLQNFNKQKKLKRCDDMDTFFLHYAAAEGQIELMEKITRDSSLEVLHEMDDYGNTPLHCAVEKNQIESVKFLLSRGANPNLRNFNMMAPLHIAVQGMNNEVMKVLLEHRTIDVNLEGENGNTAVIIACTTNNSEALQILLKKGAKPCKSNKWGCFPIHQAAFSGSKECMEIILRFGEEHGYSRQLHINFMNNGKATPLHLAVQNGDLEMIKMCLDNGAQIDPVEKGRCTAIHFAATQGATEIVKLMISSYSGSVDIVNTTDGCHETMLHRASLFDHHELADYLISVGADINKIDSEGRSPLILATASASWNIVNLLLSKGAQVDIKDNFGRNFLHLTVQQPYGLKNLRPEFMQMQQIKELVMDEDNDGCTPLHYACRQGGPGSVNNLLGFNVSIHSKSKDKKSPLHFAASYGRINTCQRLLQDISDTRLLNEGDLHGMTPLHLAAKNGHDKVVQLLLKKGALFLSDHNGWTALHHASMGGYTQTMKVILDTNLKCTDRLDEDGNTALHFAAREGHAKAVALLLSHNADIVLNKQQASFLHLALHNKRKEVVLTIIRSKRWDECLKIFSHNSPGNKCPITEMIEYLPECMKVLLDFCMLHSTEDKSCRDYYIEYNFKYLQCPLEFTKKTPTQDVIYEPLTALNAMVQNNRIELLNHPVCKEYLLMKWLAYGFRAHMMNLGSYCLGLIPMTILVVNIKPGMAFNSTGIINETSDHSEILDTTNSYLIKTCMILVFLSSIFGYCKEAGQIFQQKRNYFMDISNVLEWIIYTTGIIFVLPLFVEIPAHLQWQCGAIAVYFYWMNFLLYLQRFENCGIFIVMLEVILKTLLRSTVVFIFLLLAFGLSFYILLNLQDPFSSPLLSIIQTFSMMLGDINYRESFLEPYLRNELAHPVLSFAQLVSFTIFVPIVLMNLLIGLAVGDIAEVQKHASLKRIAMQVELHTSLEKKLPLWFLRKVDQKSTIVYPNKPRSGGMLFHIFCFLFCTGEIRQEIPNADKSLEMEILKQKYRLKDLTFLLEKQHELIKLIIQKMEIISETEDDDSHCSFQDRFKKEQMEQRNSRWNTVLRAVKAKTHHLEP

The target in the experiment is hTRPA1 (Homo sapiens, UniProt O75762). As to the kind of experiment: Dose response calcium flux (FLIPR) assay, ChanTest hTRPA1-CHO stably transfected cell line, cinnamaldehyde agonist. The experiment is classed as cell-based. The settings on record: CHO-K1 Tet-On hTRPA1 cells, 100 uM cinnamaldehyde agonist, 30 min preincubation. As to the method:
Dose Response Assay:ChanTest hTRPA1-CHO Stably Transfected Cell Line
CHO-K1 Tet-On_HOMSA_TRPA1_Clone_20
Growth Media for CHO-K1 Tet-On_HOMSA_TRPA1_Clone_20 • Ham's F-12 with 10% tetracycline-free FBS • 1× penicillin-streptomycin • 1× glutamax • 0.01 mg/ml Blasticidin • 0.40 mg/ml Zeocin • The cell line doubling rate was ˜15 h. […] Experiments were run at 24 h post induction.
Plating Conditions CHOK1/TRPA1 Cells: • Harvested cells with 0.025% trypsin/EDTA. • Resuspended cells in growth media without selection antibiotics. • Measured cell density and diluted to 2.4×10^5 cells/ml in media containing 1 ug/ml Doxycycline Plate 25 ul/well into 384 well black/clear tissue culture-treated plates. • Incubated overnight at 37° C.
Replacement Buffer: Hank's Balanced Salt Solution, 20 mM HEPES along with 0.005% BSA and 2× Probenecid
Dye Loading Buffer: Cal-3 NW Calcium dye was prepared by dissolving the contents of one vial with […] Hank's Balanced Salt Solution containing 20 mM HEPES.
AP-18, stock 10 mM, prepare 3.5× compound dilution in a Compound Buffer (HBSS/20 mM HEPES/0.005% BSA)—final concentration 10 uM.
Preparation of Cinnamaldehyde (Agonist Addition): • FW=132.16 • Specific gravity=1.046 gm/cc • 1.32 gm/1.046 gm/cc=1.26 ml of stock • Add 1.74 ml DMSO=3.3 M stock • Working solution 4.5× (final 100 uM in Compound Buffer: HBSS/20 mM HEPES/0.005% BSA)
Compounds dilutions were prepared from 5 or 10 mM stock (100% DMSO): • Adjustments of volumes and concentrations were made at time of titration to reflect desired final assay concentrations. • Compounds were tested at either 20 μM three folds dilution 11 steps out or 30 μM two folds dilution 11 steps out. • 3 μl of diluted compound were transferred into Weidmann 384-well plate in duplicates side-by-side. • Compound plates were resuspended with 100 ul of HBSS/20 mM HEPES/0.005% BSA buffer (Compound Buffer): • column 1A-H: buffer/DMSO (bk) • column 2A-H: AP-18 (control antagonist for CHOK1 TRPA1 cells) • column 1I-P: ATP (control for CHOK1 teton cells) • column 2I-P: 2APB (control antagonist for CHOK1/TRPM8 cells).
Growth media was removed from the cell plates (20 ul) and 20 μl of the Replacement Buffer was added followed by addition of 25 μl of diluted dye. All three steps were performed using a Plate Washer BioTek 407. The plates were then incubated for 30′ at RT.
After incubation, both the cell and compound plates were brought to the FLIPR and 20 μl of the diluted compounds/antagonist/bk were transferred to the cell plates by the FLIPR. Plates were then incubated for 30′ at room temperature. After 30′ incubation, plates were returned to the FLIPR and 20 μl of 4.5× Cinnamaldehyde was added to the cell plates. During the compound addition as well as agonist addition, fluorescence readings were taken simultaneously from all 384 wells of the cell plate every 1.5 seconds. Five readings were taken to establish a stable baseline, then 20 μl of sample was rapidly (30 ul/sec) and simultaneously added to each well of the cell plate. The fluorescence was continuously monitored before, during and after sample/agonist addition for a total elapsed time of 100 seconds (compound addition) and 120 seconds (agonist addition). Responses (increase in peak fluorescence) in each well following agonist addition was determined. The initial fluorescence reading from each well, prior to ligand stimulation, was used a zero baseline value for the data from that well.
For orientation: A change in cytosolic calcium serves as a functional read-out for many receptors and channels.
As usually defined, the IC50 is the concentration needed to halve the response being measured. As for `O=C(Nc1ccc(Cl)c(F)c1)O[C@@H](CN1CCS(=O)(=O)[C@H](c2cccc(C(F)(F)F)c2)C1)C(F)(F)F` [Example 20, (4-Chloro-3-fluorophenyl)-carbamic acid (S)-1-[(R)-1,1-dioxo-2-(3-trifluoromethylphenyl)-1λ^6-thiomorpholin-4-ylmethyl]-2,2,2-trifluoroethyl ester], the half-maximal inhibitory concentration (IC50) is 74.3 nM.
For `O=C(Nc1ccc(Cl)c(F)c1)O[C@@H](CN1CCO[C@H](c2ccc(C(F)(F)F)nc2)C1)C(F)(F)F` [Example 22, (4-Chloro-3-fluorophenyl)-carbamic acid (S)-2,2,2-trifluoro-1-[(R)-2-(6-trifluoromethyl-pyridin-3-yl)-morpholin-4-ylmethyl]-ethyl ester] the value was 64.3 nM.
For the compound `O=C(Nc1ccc(Cl)c(F)c1)O[C@@H](CN1CCO[C@H](c2ccnc(C(F)(F)F)n2)C1)C(F)(F)F` [Example 24, (4-Chloro-3-fluorophenyl)-carbamic acid (S)-2,2,2-trifluoro-1-[(S)-2-(2-trifluoromethylpyrimidin-4-yl)-morpholin-4-ylmethyl]-ethyl ester hydrochloride], the IC50 came to 71.1 nM.
The result for `CC(C)c1nccc([C@@H]2CN(C[C@H](OC(=O)Nc3ccc(Cl)c(F)c3)C(F)(F)F)CCO2)n1` [Example 25, (4-Chloro-3-fluorophenyl)-carbamic acid (S)-2,2,2-trifluoro-1-[(S)-2-(2-isopropylpyrimidin-4-yl)-morpholin-4-ylmethyl]-ethyl ester hydrochloride] reads 103 nM; that for `CN1CCN(C[C@H](OC(=O)Nc2ccc(Cl)cc2)C(F)(F)F)CC1c1ccccc1` (stereo partly drawn) [Example 27, (4-Chlorophenyl)-carbamic acid (S)-2,2,2-trifluoro-1-(4-methyl-3-phenylpiperazin-1-ylmethyl)-ethyl ester hydrochloride], 2620 nM; that for `CC(=O)N1CCN(C[C@H](OC(=O)Nc2ccc(Cl)cc2)C(F)(F)F)CC1c1ccccc1` (stereo partly drawn) [Example 28, (4-Chlorophenyl)-carbamic acid (S)-1-(4-acetyl-3-phenylpiperazin-1-ylmethyl)-2,2,2-trifluoroethyl ester hydrochloride], 4530 nM.
The result for `O=C(Nc1ccc(Cl)cc1)O[C@@H](CN1CCO[C@H](c2ccc(C(F)(F)F)cc2)C1)C(F)(F)F` [Example 29, (4-Chlorophenyl)-carbamic acid (S)-2,2,2-trifluoro-1-[(R)-2-(4-trifluoromethylphenyl)-morpholin-4-ylmethyl]-ethyl ester hydrochloride] reads 7.64 nM; that for `O=C(Nc1ccc(Cl)c(F)c1)O[C@@H](CN1CCO[C@H](c2ccc(C(F)(F)F)cc2)C1)C(F)(F)F` [Example 31, (4-Chloro-3-fluorophenyl)carbamic acid (S)-2,2,2-trifluoro-1-[(R)-2-(4-trifluoromethylphenyl)-morpholin-4-ylmethyl]-ethyl ester hydrochloride], 34.6 nM; that for `O=C(Nc1ccc(Cl)c(F)c1)O[C@@H](CN1CCO[C@@H](c2ccc(C(F)(F)F)cc2)C1)C(F)(F)F` [Example 32, (4-Chloro-3-fluorophenyl)-carbamic acid (S)-2,2,2-trifluoro-1-[(S)-2-(4-trifluoromethylphenyl)-morpholin-4-ylmethyl]-ethyl ester hydrochloride], 451 nM.
Turning to `Cc1ccc(NC(=O)O[C@@H](CN2CCOC(c3ccc(C(F)(F)F)cc3)C2)C(F)(F)F)cc1Cl` (stereo partly drawn) [Example 33, (3-Chloro-4-methylphenyl)-carbamic acid (S)-2,2,2-trifluoro-1-[2-(4-trifluoromethylphenyl)-morpholin-4-ylmethyl]-ethyl ester hydrochloride], the half-maximal inhibitory concentration (IC50) came out at 1630 nM.
The result for `O=C(Nc1ccc(Cl)c(F)c1)O[C@@H](CN1CCO[C@H](c2ccc(F)c(F)c2)C1)C(F)(F)F` [Example 34, (4-Chloro-3-fluorophenyl)-carbamic acid (S)-1-[(R)-2-(3,4-difluorophenyl)-morpholin-4-ylmethyl]-2,2,2-trifluoroethyl ester hydrochloride] reads 37.6 nM.
For `O=C(Nc1ccc(Cl)c(F)c1)O[C@@H](CN1CCO[C@H](c2ccc(F)cc2)C1)C(F)(F)F` [Example 36, (4-Chloro-3-fluorophenyl)carbamic acid (S)-1-[(R)-2-(4-fluorophenyl)-morpholin-4-ylmethyl]-2,2,2-trifluoroethyl ester hydrochloride] the value was 92.2 nM; for `Cc1ccc(NC(=O)O[C@@H](CN2CCOC(c3ccc(F)c(F)c3)C2)C(F)(F)F)cc1` (stereo partly drawn) [Example 37, p-Tolylcarbamic acid (S)-1-[2-(3,4-difluorophenyl)-morpholin-4-ylmethyl]-2,2,2-trifluoroethyl ester hydrochloride], 458 nM; for `O=C(Nc1ccc(Cl)nc1)O[C@@H](CN1CCOC(c2cccc(C(F)(F)F)c2)C1)C(F)(F)F` (stereo partly drawn) [Example 38, (6-Chloropyridin-3-yl)carbamic acid (S)-2,2,2-trifluoro-1-[2-3-trifluoromethylphenyl]-morpholin-4-ylmethyl]-ethyl ester hydrochloride], 78 nM.
For `O=C(C[C@@H](CN1CCO[C@H](c2cccc(C(F)(F)F)c2)C1)C(F)(F)F)Nc1ccc(Cl)c(F)c1` [Example 39, (S)—N-(4-chloro-3-fluorophenyl)-4,4,4-trifluoro-3-[(R)-2-(3-trifluoromethylphenyl)-morpholin-4-ylmethyl]-butyramide] the value was 73.8 nM; for `O=C(C[C@@H](CN1CCO[C@@H](c2cccc(C(F)(F)F)c2)C1)C(F)(F)F)Nc1ccc(Cl)c(F)c1` [Example 40, (S)—N-(4-chloro-3-fluorophenyl)-4,4,4-trifluoro-3-[(S)-2-(3-trifluoromethylphenyl)-morpholin-4-ylmethyl]-butyramide], 3060 nM.
Take `O=C(Nc1ccc(Cl)cc1)OC(CN1CCOCC1)C(F)(F)F` (stereo not shown) [Example 41, (4-Chlorophenyl)-carbamic acid 2,2,2-trifluoro-1-morpholin-4-ylmethyl-ethyl ester]: the IC50 is 2140 nM.
Regarding `O=C(Nc1ccc(Cl)cc1)O[C@@H](CN1CCOC(c2ccc(F)cc2)C1)C(F)(F)F` (stereo partly drawn) [Example 42, (4-Chlorophenyl)carbamic acid (S)-2,2,2-trifluoro-1-[2-(4-fluorophenyl)-morpholin-4-ylmethyl]-ethyl ester hydrochloride], the IC50 turned out to be 83.4 nM.
For `O=C(Nc1ccc(Cl)cc1)O[C@@H](CN1CCOC(c2cccc(Cl)c2)C1)C(F)(F)F` (stereo partly drawn) [Example 43, (4-Chlorophenyl)-carbamic acid (S)-2,2,2-trifluoro-1-[2-(3-chlorophenyl)-morpholin-4-ylmethyl]-ethyl ester hydrochloride] the value was 17.8 nM; for `O=C(Nc1ccc(Cl)cc1)O[C@@H](CN1CCOC(c2cc(Cl)cc(Cl)c2)C1)C(F)(F)F` (stereo partly drawn) [Example 44, (4-Chlorophenyl)-carbamic acid (S)-2,2,2-trifluoro-1-[2-(3,5-dichlorophenyl)-morpholin-4-ylmethyl]-ethyl ester hydrochloride], 10.3 nM.
The result for `O=C(Nc1ccc(Cl)cc1)O[C@@H](CN1CCO[C@H](c2cc(Cl)cc(Cl)c2)C1)C(F)(F)F` [Example 45, (4-Chlorophenyl)carbamic acid (S)-1-[(R)-2-(3,5-dichlorophenyl)-morpholin-4-ylmethyl]-2,2,2-trifluoroethyl ester hydrochloride] reads 8.09 nM; that for `O=C(Nc1ccc(Cl)c(F)c1)O[C@@H](CN1CCO[C@H](c2cc(Cl)cc(Cl)c2)C1)C(F)(F)F` [Example 46, (4-Chloro-3-fluorophenyl)carbamic acid (S)-1-[(R)-2-(3,5-dichlorophenyl)-morpholin-4-ylmethyl]-2,2,2-trifluoroethyl ester hydrochloride], 16.9 nM.
